For data set [1], the system named is Adalia sp. The experiment in a line: LR50; higher = less toxic. To be noted: chronic/long-term; duration: 21 days; mortality.
In data set [2] the test system is Daphnia magna. To be noted: chronic/long-term, duration: 21 days.
The test system of data set [3] is Colinus virginianus.
In data set [4] the test system is Bibionidae. To be noted: chronic/long-term; duration: 28 days; other.
Data set [5] deals with Pimephales promelas. To be noted: chronic/long-term; duration: 35 days; growth.
The subject of data set [6] is Mus musculus. To be noted: acute; oral; mortality.
Data set [7] has as its system Rattus norvegicus.
Data set [8] concerns Macromiidae. To be noted: acute; duration: 96 hours; growth.
The subject of data set [9] is Tagia sp. To be noted: acute; duration: 14 days; mortality.
Data set [10] has as its system Lepomis macrochirus. To be noted: acute; duration: 96 hours; mortality.
Data set [11] concerns Canidae. To be noted: oral, Dog Other, hematological.
The subject of data set [12] is Apis mellifera. To be noted: acute; duration: 48 hours; dermal; mortality.
The mark [13] stands for this setting: reproduction developmental, reproduction.

Values after ≈ are worked out from the molar mass of the structure shown.

The term NOAEL denotes the highest dose or exposure tested at which no adverse effect was seen.

With `CCc1ccc(C(=O)NN(C(=O)c2cc(C)cc(C)c2)C(C)(C)C)cc1` [Tebufenozide], the LR50 in data set [1] was above 128 g/ha. Besides, the NOEC was 0.029 mg/L in data set [2] (growth); 0.0078 mg/L in data set [2] (reproduction); 0.0057 mg/L in [4]; 0.71 mg/L in data set [5]; 0.046 mg/L in data set [8]; at least 1000 mg/kg in data set [9]. In addition, the LC50 in data set [3] (acute, oral, diet, mortality) was above 814 mg/kg; in data set [9] it was above 1000 mg/kg; in data set [10], 3 µg/mL (≈ 8.51 µM). Further, the LD50 is above 2150 mg/kg in data set [3] (acute, oral, mortality); above 5000 mg/kg in data set [6]; above 5000 mg/kg in data set [7] (acute, oral, mortality); above 234 µg/piece in data set [12]. Further, the no observed adverse effect level (NOAEL) was 48 mg/kg-day in data set [3] (setting [13]); 15 mg/kg-day in [7] (setting [13]); 2 mg/kg-day in data set [11] (chronic, duration: 52 weeks); 2 mg/kg-day in [11] (subchronic, duration: 90 days).

These data come from EPA's ToxValDB 9.5 (doi:10.2903/j.efsa.2010.1871).
